Holding throughout (test): growth of human tumour cells (NCI), 48 h
Test [1] has as its system A498 renal.
Test [2] has as its system SF-295 CNS.
Test [3] has as its system HS 578T breast.
Test [4] concerns NCI-H226 lung.
Test [5] relates to SNB-75 CNS.
Test [6] concerns SF-268 CNS.
The subject of test [7] is MCF7 breast.
Test [8] deals with LOX IMVI melanoma.
The test system of test [9] is SK-MEL-5 melanoma.
Test [10] relates to SR leukemia.

Where “and” joins values, the source holds several entries; their conditions need not be identical. Identical values can stand only once.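 Following 48 hours of exposure in 96-well plates, responses at five concentrations were used to interpolate endpoints linearly. GI50 marks 50% less growth. TGI is the concentration that stops growth completely.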

As to `Cc1cc(S(=O)(=O)Nc2nc3ccsc3c(=O)n2Cc2ccccc2)c(S)cc1Cl`, the GI50 in test [1] was 14.2 µM; in test [2], 26.8 µM; in test [3], 42.3 µM; in test [4] it was 34.5 µM; in test [5] it was over 100 µM; in [6] it was 30.6 µM. The GI50 in test [7] was 34.4 µM; in test [8], 31.1 µM; in test [9] it was 12.5 µM. Moreover, the TGI was 49.3 µM in [1]; 98.7 µM in test [2]; over 100 µM in test [3]; 93.6 µM in test [4]; over 100 µM in test [5]; over 100 µM in test [6]. The TGI in test [7] is over 100 µM; in test [8], 65.3 µM; in [9], 34.2 µM.
With `COc1ccc(Cn2c3c(c4c(O)cccc42)C(=O)c2ccccc2-3)cc1`, the GI50 in test [10] is 13.9 µM; in test [2], 12.6 µM; in test [3], 4.44 µM; in test [4] it was 13.4 µM; in [6], 8.75 µM; in test [7], 10.7 µM. Also, the GI50 in test [8] was 18.8 µM; in test [9] it was 7.76 µM. Further, the TGI is 30.5 µM in [10]; 26.2 µM in test [2]; 20.4 µM in test [3]; 32.8 µM in test [4]; 29.1 µM in test [6]; 28.1 µM in test [7]. Also, the TGI in [8] was found to be 47.8 µM; in [9] it was 20.6 µM.
For `O=C1/C(=C/c2ccc(C(F)(F)F)cc2)COc2ccc(O)cc21`, the GI50 is 1.21 µM in [10]; 11.6 µM in [1]; 12.1 µM in [2]; 2.7 µM in [3]; 2.53 µM in [4]; 13.9 µM in [5]. Further, the values for the GI50 in test [6], in test [8] and in [9] were 2.75 µM, 1.69 µM and 1.97 µM, respectively. Further, the TGI is 10.6 µM in [10]; 24 µM in test [1]; 24.9 µM in test [2]; 8.21 µM in test [4]; 27.8 µM in [5]; 13.6 µM in test [6]. Further, the TGI in [8] was 3.11 µM; in test [9], 4.38 µM.
As for `CC(C)[C@H](O)C(=O)N[C@H]1Cc2ccc3c(c2)[C@]24C5=C(N=C(O5)[C@H](C(C)C)NC1=O)c1nc(Cl)c(o1)-c1c(Cl)[nH]c5cccc(c15)-c1cccc2c1N[C@H]4O3`, the TGI in test [1] is over 10 µM; in [2], 3.87 µM; in test [3] it was over 10 µM; in test [4], 0.0273 µM; in test [6], 7.32 µM; in test [7], over 10 µM. Moreover, the GI50 in test [2], in [6], in test [7] and in [9] was under 0.001 µM each time.
With `COc1ccc(CC(C#N)c2cc(OC)c(OC)c(OC)c2)cc1` (centres undefined), the TGI in [10] is 2.15 µM; in test [2], 0.0783 µM; in [3], over 100 µM; in test [4], 14.3 µM; in test [5], over 100 µM; in test [6], over 71.4 µM. Moreover, the TGI in test [8] is over 100 µM; in test [9] it was 2.7 µM.
On to `Clc1ccc2c(NCCN3CCN(c4ccnc(N5CCCC5)n4)CC3)ccnc2c1`, for which the GI50 in test [1] is 2.39 µM; in test [2] it was 2.37 µM; in test [3], 3.54 µM; in [4], 21.8 µM; in [5] it was 1.76 µM; in test [6] it was 2.73 µM. Besides, the GI50 in test [7] was 1.96 µM; in test [8] it was 1.72 µM; in [9], 1.79 µM. Besides, the TGI in test [1] turned out to be 8.51 µM; in test [2], 5.44 µM; in [3] it was 19.8 µM; in [4], 41 µM; in test [5] it was 7.62 µM; in [6] it was 11.5 µM. The TGI in test [7] was 8.04 µM; in test [8], 3.55 µM; in test [9], 3.19 µM.
As for `COc1ccc(NCc2c(O)ccc3ccccc23)cc1`, the TGI is 39.5 µM in [10]; over 100 µM in test [1]; over 100 µM in [2]; over 100 µM in test [3]; over 100 µM in test [5]; 40.7 µM in test [6]. Also, the TGI in test [7] is over 100 µM; in test [8], 29.4 µM; in test [9], 49.1 µM.
For `CC1(C)CC(O)CCCCCCOc2c(CN)cccc2NC(=O)c2nc(cnc2N)-c2ccc(cc2)S1(=O)=O` (centres undefined), the GI50 is under 0.01 µM in test [10]; 0.0151 µM in [1]; 1.49 µM in [2]; 1.28 µM in test [4]; 0.223 µM in test [5]; 1.27 µM in [6]. Besides, the GI50 in test [7] is under 0.01 µM; in test [8], 1.26 µM; in test [9], 1.5 µM. For the same compound, the TGI in test [10] was 0.469 µM; in test [1] it was 0.84 µM; in test [2] it was 3.02 µM; in test [4], 6.93 µM; in [5], 1.74 µM; in [6], 3.44 µM. The TGI was found to be 1.81 µM in [7], 2.88 µM in test [8] and 2.89 µM in test [9].
With `CCC(C)c1cnc(CC(C)C)c(=O)[nH]1` (centres undefined), the TGI in test [10], in test [1], in test [2], in test [3], in test [5] and in test [6] was over 100 µM each time. Besides, the TGI in [7], in [8] and in test [9] was over 100 µM each time.
For the compound `C=CC1=C(C)C(Cc2[nH]c(/C=c3\[nH]/c(=C/C4=NC(=O)C(C)/C4=C\C)c(C)c3CCC(=O)O)c(CCC(=O)OC)c2C)NC1=O` (centres undefined), the GI50 in [10] was 20 µM; in test [1], over 100 µM; in test [2], 37.8 µM; in [6], 21.2 µM; in test [7], 26.7 µM; in [8], 18.6 µM. In addition, the GI50 in test [9] was 19.9 µM. Moreover, the TGI in test [10] is 46 µM; in test [1], over 100 µM; in test [2], over 100 µM; in test [6] it was 59.5 µM; in test [7] it was over 100 µM; in test [8], 37.4 µM. The same compound displayed a TGI in [9] of 37.4 µM.
For `C#CCOc1cccc(Nc2ncnc3c2ncn3C2CCN(C(=O)CCl)C2)c1` (centres undefined), the GI50 is over 100 µM in test [1]; over 100 µM in [2]; 24.7 µM in test [3]; 29.5 µM in test [4]; 34.1 µM in [5]; 17.7 µM in [6]. The GI50 in test [7] is 18.7 µM; in [9] it was 17.2 µM. The TGI is over 100 µM in test [1]; over 100 µM in [2]; 91.5 µM in [3]; over 100 µM in test [4]; over 100 µM in test [5]; 38.2 µM in [6]. The TGI in test [7] amounted to 41.4 µM; in test [9], 34.2 µM.
Take `CCCCc1oc2ccccc2c1C(=O)c1cc(I)c(OCCN(CC)CC)c(I)c1`: the GI50 was 1.68 µM in test [10]; 1.88 µM in [2]; 2.84 µM in test [4]; 1.92 µM in [5]; 3.28 µM in [6]; 1.78 µM in test [7]. Moreover, the GI50 in test [8] is 1.49 µM. In addition, the TGI was 4.24 µM in [10]; 14.3 µM in [1]; 3.81 µM and 8.35 µM in test [2]; 12.7 µM and 8.55 µM in [4]; 10.9 µM and 22.9 µM in [5]; 14 µM and 38.9 µM in [6]. Further, the TGI in test [7] was 3.71 µM and 10.8 µM; in test [8], 2.82 µM and 7.86 µM; in test [9], 2.76 µM.
As for `COc1cc(C(=O)/C=C/c2c(-c3cccs3)nc3ccccn23)cc(OC)c1OC`, the GI50 is 1.34 µM in test [10]; 0.987 µM in test [1]; 2.24 µM in test [2]; 2.04 µM in [4]; 2.68 µM in [5]; 2.37 µM in test [6]. Moreover, the GI50 is 1.12 µM in test [7], 1.87 µM in test [8] and 1.33 µM in test [9]. Moreover, the TGI is over 100 µM in test [10]; over 100 µM in test [1]; over 100 µM in [2]; 4.3 µM in test [4]; 10.2 µM in test [5]; 8.47 µM in test [6]. For the same compound, the results for the TGI in [7], in [8] and in test [9] were 15.4 µM, 4.9 µM and 2.72 µM, respectively.
Regarding `Nc1n[n+]([O-])c2cnccc2[n+]1[O-]`, the TGI in [10], in test [2], in [3], in test [4], in [5] and in test [6] was over 100 µM in each case. The TGI is over 100 µM in [8] and 30 µM in [9].
For the compound `CC(C)(C)n1cc(-c2ccnc(NCCCNS(=O)(=O)c3ccc(Cl)cc3)c2)c(-c2cccc(O)c2)n1`, the GI50 was 1.51 µM in test [1]; 1.79 µM in test [2]; 1.84 µM in test [3]; 2.11 µM in test [4]; 1.37 µM in test [5]; 2.18 µM in test [6]. The GI50 in [7] was 1.84 µM; in [8], 1.73 µM; in test [9] it was 1.44 µM. Further, the TGI amounted to 3.72 µM in [1]; 3.37 µM in test [2]; 4.81 µM in test [3]; 5.04 µM in [4]; 3.03 µM in test [5]; 5.78 µM in [6]. Further, the figures for the TGI in test [7], in [8] and in test [9] were 3.91 µM, 3.15 µM and 2.76 µM, respectively.
As for `CCOC(CN(C)C(=O)OCC(Cl)(Cl)Cl)OCC`, the TGI in [10], in [2], in test [3], in test [4], in test [5] and in [6] was over 100 µM each time. For the same compound, the TGI in [7], in test [8] and in [9] was over 100 µM throughout.
Turning to `COc1ccc2nc(C3=CN(C4OC(CO)C(O)C(O)C4O)C4C=CC=CC34)sc2c1` (centres undefined), the GI50 in [2] was 26.6 µM; in [3] it was 34.4 µM; in test [4], 21.4 µM; in [5] it was 55 µM; in [6], over 100 µM; in test [7], over 100 µM. Besides, the GI50 is 19.4 µM in test [8] and 31.5 µM in [9]. Further, the TGI was 82.3 µM in test [2]; 94.4 µM in [3]; 79.3 µM in test [4]; over 100 µM in test [5]; over 100 µM in test [6]; over 100 µM in [7]. Also, the TGI in [8] was 56.6 µM; in test [9], 80.7 µM.
On to `O=C1C(Cl)=C(Nc2ccc3c(c2NC2=C(Cl)C(=O)c4ccccc4C2=O)C(=O)c2ccccc2C3=O)C(=O)c2ccccc21`, for which the GI50 is 1.42 µM in [10]; 2.02 µM in test [1]; 1.38 µM in [2]; 2.1 µM in test [3]; 2.7 µM in test [4]; 4.35 µM in test [5]. The GI50 in test [6] was 2.91 µM; in [8], 0.872 µM; in [9] it was 0.386 µM. In addition, the TGI in test [10] was over 100 µM; in [1], 4.2 µM; in test [2] it was 3.2 µM; in test [3], 6.88 µM; in test [4], 8.9 µM; in [5], 13.9 µM. The figures for the TGI in test [6], in test [8] and in test [9] were 12.9 µM, 10.4 µM and 1.47 µM, respectively.
In the case of `O=C(Nn1c2c(sc1=NC1CC1)C(=O)c1ccccc1C2=O)c1cc2ccc1CCc1ccc(cc1)CC2`, the GI50 in test [1] is 20.7 µM; in test [2], 3.55 µM; in test [3], 2.09 µM; in [4] it was 1.81 µM; in [5], 1.32 µM; in [6], 2.54 µM. The GI50 in [7] was 1.42 µM; in test [8], 0.966 µM; in test [9], 1.43 µM. The TGI in test [1] is 63.4 µM; in test [2] it was 12.7 µM; in test [3], 6.03 µM; in [4] it was 5.83 µM; in test [5], 6.04 µM; in test [6], 11 µM. Moreover, the values for the TGI in [7], in [8] and in test [9] were 3.29 µM, 2.62 µM and 2.76 µM, respectively.

The values above are taken from PubChem BioAssay (NCI).
